Assay results: the NIST ThermoML archive (doi:10.1021/je800110r)
± gives the expanded uncertainty stated by the source.

Settings: Liquid, Vibrating tube method

CCCCCCCCCC [decane]
mass density [kg/m3]
Settings	283.15 K	293.14 K
635 kPa	–	730.3 ± 2
660 kPa	–	730.5 ± 2
720 kPa	–	730.4 ± 2
803 kPa	–	730.5 ± 2
26776 kPa	755.1 ± 2.1	–
26808 kPa	755.2 ± 2.1	–
26844 kPa	755.1 ± 2.1	–
26869 kPa	755.2 ± 2.1	–
26895 kPa	755.3 ± 2.1	–
26931 kPa	755.3 ± 2.1	–
26952 kPa	755.2 ± 2.1	–
26974 kPa	755.3 ± 2.1	–
27007 kPa	755.3 ± 2.1	–
27036 kPa	755.3 ± 2.1	–
27058 kPa	755.3 ± 2.1	–
27090 kPa	755.5 ± 2.1	–
27112 kPa	755.3 ± 2.1	–
27145 kPa	755.4 ± 2.1	–
27171 kPa	755.4 ± 2.1	–
27193 kPa	755.5 ± 2.1	–
27219 kPa	755.3 ± 2.1	–
27242 kPa	755.5 ± 2.1	–
27268 kPa	755.6 ± 2.1	–
27295 kPa	755.5 ± 2.1	–
27321 kPa	755.4 ± 2.1	–
27347 kPa	755.6 ± 2.1	–
27373 kPa	755.5 ± 2.1	–
27611 kPa	755.7 ± 2.1	–
27638 kPa	755.7 ± 2.1	–
27665 kPa	755.8 ± 2.1	–
27700 kPa	755.7 ± 2.1	–
27726 kPa	755.8 ± 2.1	–
27749 kPa	755.7 ± 2.1	–
27784 kPa	755.8 ± 2.1	–
27818 kPa	755.8 ± 2.1	–
27842 kPa	755.9 ± 2.1	–
27876 kPa	755.9 ± 2.1	–
27908 kPa	755.9 ± 2.1	–
27935 kPa	755.9 ± 2.1	–
27963 kPa	755.9 ± 2.1	–
27990 kPa	755.9 ± 2.1	–
28021 kPa	755.9 ± 2.1	–
28049 kPa	755.9 ± 2.1	–
28076 kPa	756 ± 2.1	–
28113 kPa	756 ± 2.1	–
28134 kPa	756 ± 2.1	–
28171 kPa	756 ± 2.1	–
28206 kPa	756 ± 2.1	–
28227 kPa	756 ± 2.1	–
28251 kPa	756.1 ± 2.1	–
28288 kPa	756.1 ± 2.1	–
28322 kPa	756.2 ± 2.1	–
28344 kPa	756.1 ± 2.1	–
28377 kPa	756 ± 2.1	–
28409 kPa	756.2 ± 2.1	–
28431 kPa	756.3 ± 2.1	–
28463 kPa	756.1 ± 2.1	–
28486 kPa	756.2 ± 2.1	–
28515 kPa	756.3 ± 2.1	–
28541 kPa	756.2 ± 2.1	–
28571 kPa	756.3 ± 2.1	–
28597 kPa	756.3 ± 2.1	–
28616 kPa	756.2 ± 2.1	–
28645 kPa	756.3 ± 2.1	–
28678 kPa	756.4 ± 2.1	–
28701 kPa	756.3 ± 2.1	–
28728 kPa	756.4 ± 2.1	–
28766 kPa	756.4 ± 2.1	–
28792 kPa	756.5 ± 2.1	–
28822 kPa	756.4 ± 2.1	–
28845 kPa	756.5 ± 2.1	–
28872 kPa	756.5 ± 2.1	–
28899 kPa	756.5 ± 2.1	–
28925 kPa	756.5 ± 2.1	–
28952 kPa	756.4 ± 2.1	–
28987 kPa	756.5 ± 2.1	–
29014 kPa	756.5 ± 2.1	–
29040 kPa	756.5 ± 2.1	–
29067 kPa	756.5 ± 2.1	–
29114 kPa	756.7 ± 2.1	–
29141 kPa	756.6 ± 2.1	–
29203 kPa	756.7 ± 2.1	–
29251 kPa	756.7 ± 2.1	–
29278 kPa	756.6 ± 2.1	–
29309 kPa	756.6 ± 2.1	–
29341 kPa	756.7 ± 2.1	–
29368 kPa	756.7 ± 2.1	–
29392 kPa	756.6 ± 2.1	–
29424 kPa	756.7 ± 2.1	–
29460 kPa	756.7 ± 2.1	–
29484 kPa	756.8 ± 2.1	–
29508 kPa	756.7 ± 2.1	–
29555 kPa	756.8 ± 2.1	–
29591 kPa	756.8 ± 2.1	–
29652 kPa	756.9 ± 2.1	–
29688 kPa	757 ± 2.1	–
30170 kPa	757.2 ± 2.1	–
30200 kPa	757.3 ± 2.1	–
30225 kPa	757.3 ± 2.1	–
30263 kPa	757.3 ± 2.1	–
30301 kPa	757.1 ± 2.1	–
30327 kPa	757.2 ± 2.1	–
30365 kPa	757.4 ± 2.1	–
30399 kPa	757.3 ± 2.1	–
30425 kPa	757.3 ± 2.1	–
30461 kPa	757.4 ± 2.1	–
30487 kPa	757.4 ± 2.1	–
30512 kPa	757.4 ± 2.1	–
30539 kPa	757.4 ± 2.1	–
30561 kPa	757.4 ± 2.1	–
30603 kPa	757.4 ± 2.1	–
30638 kPa	757.4 ± 2.1	–
30664 kPa	757.4 ± 2.1	–
30704 kPa	757.5 ± 2.1	–
30740 kPa	757.4 ± 2.1	–
30771 kPa	757.5 ± 2.1	–
30836 kPa	757.5 ± 2.1	–
30867 kPa	757.5 ± 2.1	–
30893 kPa	757.6 ± 2.1	–
30975 kPa	757.6 ± 2.1	–
31003 kPa	757.6 ± 2.1	–
31031 kPa	757.7 ± 2.1	–
31062 kPa	757.8 ± 2.1	–
31099 kPa	757.6 ± 2.1	–
31136 kPa	757.6 ± 2.1	–
31162 kPa	757.7 ± 2.1	–
31187 kPa	757.9 ± 2.1	–
31218 kPa	757.7 ± 2.1	–
31253 kPa	757.8 ± 2.1	–
31284 kPa	757.9 ± 2.1	–
31310 kPa	757.9 ± 2.1	–
31337 kPa	757.9 ± 2.1	–
31363 kPa	757.8 ± 2.1	–
31377 kPa	757.9 ± 2.1	–
31402 kPa	757.9 ± 2.1	–
31424 kPa	758 ± 2.1	–
31441 kPa	758 ± 2.1	–
31463 kPa	758 ± 2.1	–
31492 kPa	758 ± 2.1	–
31509 kPa	758 ± 2.1	–
31566 kPa	757.9 ± 2.1	–
31598 kPa	758 ± 2.1	–
31615 kPa	758 ± 2.1	–
31631 kPa	758 ± 2.1	–
31657 kPa	758.2 ± 2.1	–
31680 kPa	758 ± 2.1	–
31697 kPa	758.1 ± 2.1	–
31724 kPa	758.2 ± 2.1	–
31749 kPa	758.2 ± 2.1	–
31769 kPa	758.1 ± 2.1	–
31794 kPa	758.1 ± 2.1	–
31815 kPa	758.3 ± 2.1	–
31835 kPa	758.2 ± 2.1	–
31855 kPa	758.3 ± 2.1	–
31878 kPa	758.3 ± 2.1	–
32055 kPa	758.2 ± 2.1	–
32091 kPa	758.2 ± 2.1	–
32141 kPa	758.3 ± 2.1	–
32209 kPa	758.4 ± 2.1	–
32230 kPa	758.4 ± 2.1	–
32248 kPa	758.4 ± 2.1	–
32268 kPa	758.5 ± 2.1	–
32289 kPa	758.5 ± 2.1	–
32312 kPa	758.4 ± 2.1	–
32330 kPa	758.4 ± 2.1	–
32357 kPa	758.5 ± 2.1	–
32378 kPa	758.5 ± 2.1	–
32405 kPa	758.4 ± 2.1	–
32427 kPa	758.6 ± 2.1	–
32445 kPa	758.5 ± 2.1	–
32465 kPa	758.5 ± 2.1	–
32490 kPa	758.6 ± 2.1	–
32511 kPa	758.4 ± 2.1	–
32535 kPa	758.6 ± 2.1	–
32559 kPa	758.5 ± 2.1	–
32597 kPa	758.6 ± 2.1	–
32618 kPa	758.6 ± 2.1	–
32636 kPa	758.6 ± 2.1	–
32655 kPa	758.6 ± 2.1	–
32682 kPa	758.7 ± 2.1	–
32708 kPa	758.8 ± 2.1	–
32727 kPa	758.6 ± 2.1	–
32746 kPa	758.7 ± 2.1	–
32767 kPa	758.6 ± 2.1	–
32793 kPa	758.6 ± 2.1	–
32811 kPa	758.7 ± 2.1	–
32827 kPa	758.8 ± 2.1	–
32850 kPa	758.7 ± 2.1	–
32869 kPa	758.7 ± 2.1	–
32894 kPa	758.7 ± 2.1	–
32922 kPa	758.8 ± 2.1	–
32944 kPa	758.8 ± 2.1	–
32966 kPa	758.7 ± 2.1	–
32989 kPa	758.9 ± 2.1	–
33018 kPa	758.8 ± 2.1	–
33037 kPa	758.9 ± 2.1	–
33062 kPa	758.7 ± 2.1	–
33085 kPa	758.9 ± 2.1	–
33107 kPa	758.9 ± 2.1	–
33133 kPa	759 ± 2.1	–
33155 kPa	758.9 ± 2.1	–
33178 kPa	759 ± 2.1	–
33200 kPa	759.1 ± 2.1	–
33220 kPa	759 ± 2.1	–
33249 kPa	759 ± 2.1	–
33275 kPa	759 ± 2.1	–
33295 kPa	759 ± 2.1	–
33544 kPa	759.2 ± 2.1	–
33573 kPa	759.1 ± 2.1	–
33592 kPa	759.1 ± 2.1	–
33621 kPa	759.2 ± 2.1	–
33651 kPa	759.1 ± 2.1	–
33667 kPa	759.3 ± 2.1	–
33690 kPa	759.3 ± 2.1	–
33707 kPa	759.1 ± 2.1	–
33737 kPa	759.2 ± 2.1	–
33761 kPa	759.3 ± 2.1	–
33781 kPa	759.2 ± 2.1	–
33805 kPa	759.2 ± 2.1	–
33822 kPa	759.3 ± 2.1	–
33852 kPa	759.2 ± 2.1	–
33873 kPa	759.3 ± 2.1	–
33897 kPa	759.2 ± 2.1	–
33922 kPa	759.3 ± 2.1	–
33943 kPa	759.4 ± 2.1	–
33964 kPa	759.4 ± 2.1	–
33982 kPa	759.3 ± 2.1	–
34002 kPa	759.4 ± 2.1	–
34022 kPa	759.4 ± 2.1	–
34045 kPa	759.4 ± 2.1	–
34063 kPa	759.5 ± 2.1	–
34081 kPa	759.3 ± 2.1	–
34104 kPa	759.4 ± 2.1	–
34127 kPa	759.6 ± 2.1	–
34148 kPa	759.4 ± 2.1	–
34169 kPa	759.4 ± 2.1	–
34195 kPa	759.5 ± 2.1	–
34214 kPa	759.5 ± 2.1	–
34237 kPa	759.6 ± 2.1	–
34264 kPa	759.5 ± 2.1	–
34311 kPa	759.6 ± 2.1	–
34330 kPa	–	753.1 ± 2.1
34339 kPa	759.5 ± 2.1	–
34351 kPa	–	753.1 ± 2.1
34359 kPa	759.6 ± 2.1	–
34380 kPa	–	753.2 ± 2.1
34400 kPa	–	753.1 ± 2.1
34412 kPa	–	753.3 ± 2.1
34420 kPa	–	753.2 ± 2.1
34428 kPa	–	753.1 ± 2.1
34437 kPa	–	753.2 ± 2.1
34447 kPa	759.6 ± 2.1	–
34451 kPa	–	753.2 ± 2.1
34459 kPa	–	753.2 ± 2.1
34471 kPa	–	753.2 ± 2.1
34478 kPa	759.7 ± 2.1	–
34481 kPa	–	753.1 ± 2.1
34490 kPa	759.6 ± 2.1	–
34491 kPa	–	753.1 ± 2.1
34504 kPa	759.7 ± 2.1	753.2 ± 2.1
34514 kPa	759.7 ± 2.1	–
34517 kPa	–	753.2 ± 2.1
34527 kPa	–	753.2 ± 2.1
34530 kPa	759.6 ± 2.1	–
34537 kPa	–	753.3 ± 2.1
34543 kPa	–	753.2 ± 2.1
34544 kPa	759.7 ± 2.1	–
34545 kPa	–	753.3 ± 2.1
34551 kPa	759.7 ± 2.1	–
34558 kPa	759.6 ± 2.1	–
34561 kPa	759.7 ± 2.1	–
34564 kPa	759.8 ± 2.1	–
34567 kPa	759.6 ± 2.1	–
